{"source": "patent US10695341B2", "about": "“Compositions and methods for treating endometriosis” (UNIVERSITY OF SOUTH FLORIDA, priority 2014, dated 2020)", "system": "uterine horns and endometriotic lesions", "assay": "H&E histopathology of uterine horns and lesions from treated mice", "assay_type": "in vivo, C57BL/6 mice", "description": "A randomly selected subset of the collected lesions and uterine horns were processed for staining with hematoxylin and eosin (H&E) (pathologically confirmed endometriotic lesions from PBS and HCQ-treated mice, n=15 each; uterine horns derived from PBS-treated mice, n=10; and uterine horns derived from HCQ-treated mice, n=10).\nFive-week-old C57BL/6 female mice were purchased from Jackson laboratories. All animals were maintained under standard 12 h photoperiod; food and water were available ad libitum throughout the study. All experimental procedures and animal care were approved by the Animal Care and Use Committee (IACUC) of the University of South Florida (R IS00000101), in accordance with the principles described in the Guide for the Care and Use of Laboratory Animals of the National Institutes of Health. All surgical procedures were performed under aseptic conditions using anesthesia. The mouse model of endometriosis was performed as previously described. […] Lesions were measured using a caliper. Volume of the lesions was calculated according to the formula: 4/3πr^2R.\nCollected samples were immediately preserved in 10% neutral buffered formalin at the animal facility. […] Lesions were analyzed from independent blocks. […]", "data": [{"molecule": "CCN(CCO)CCCC(C)Nc1ccnc2cc(Cl)ccc12", "note": "(centres unmarked) [HCQ, hydroxychloroquine]", "values": [{"measurement": "uterine horns with irregular epithelium pattern", "setting": "uterine horns from HCQ-treated mice, 60 mg/kg", "value": "5 out of 10"}, {"measurement": "histology of ectopic growths (glandular components)", "setting": "vs PBS, p=0.03 Fisher's exact test", "value": "did not histologically resemble endometriotic lesions"}]}]}
